ChEMBL document CHEMBL1201862, “PubChem BioAssay data set” (2004)
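Tested at 5 concentrations; 48 h exposure; 96-well plates; endpoints linearly interpolated, else capped at highest concentration. GI50: concentration for 50% inhibition of growth.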 The source made the active and inactive calls. Cut-off read from the data, not from the text of the source: active = GI50 up to about 1.1 µM and inactive = higher.

Experiments:
Assay in all cases: growth of human tumour cells (NCI), 48 h
KM12 = test system: KM12
DMS-114 = test system: DMS-114
UO-31 = test system: UO-31
IGROV-1 = test system: IGROV-1
SK-OV-3 = test system: SK-OV-3
SW-620 = test system: SW-620
DLD-1 = test system: DLD-1
HCT-116 = test system: HCT-116
Malme-3M = test system: Malme-3M
NCI-H522 = test system: NCI-H522
OVCAR-8 = test system: OVCAR-8
SK-MEL-5 = test system: SK-MEL-5
HCT-15 = test system: HCT-15
OVCAR-5 = test system: OVCAR-5
CAKI-1 = test system: CAKI-1
SNB-75 = test system: SNB-75
HOP-92 = test system: HOP-92
DMS-273 = test system: DMS-273
HOP-18 = test system: HOP-18
HOP-62 = test system: HOP-62
UACC-62 = test system: UACC-62
MOLT-4 = test system: MOLT-4
RPMI-8226 = test system: RPMI-8226
HL-60 = test system: HL-60
OVCAR-3 = test system: OVCAR-3
NCI-H23 = test system: NCI-H23
A549 = test system: A549
HT-29 = test system: HT-29
TK-10 = test system: TK-10
CCRF-CEM = test system: CCRF-CEM
NCI-H460 = test system: NCI-H460
SF-268 = test system: SF-268
SK-MEL-2 = test system: SK-MEL-2
K562 = test system: K562
U-251 = test system: U-251
786-0 = test system: 786-0
SF-295 = test system: SF-295
SN12C = test system: SN12C
SNB-78 = test system: SNB-78
RXF 393 = test system: RXF 393
EKVX = test system: EKVX
COLO 205 = test system: COLO 205
OVCAR-4 = test system: OVCAR-4
UACC-257 = test system: UACC-257
SK-MEL-28 = test system: SK-MEL-28
XF498 = test system: XF498
SNB-19 = test system: SNB-19
HCC 2998 = test system: HCC 2998
LXFL 529 = test system: LXFL 529
KM-20L2 = test system: KM-20L2
A498 = test system: A498
SR = test system: SR
M19-MEL = test system: M19-MEL
M14 = test system: M14
NCI-H226 = test system: NCI-H226
ACHN = test system: ACHN
SF-539 = test system: SF-539
LOX IMVI = test system: LOX IMVI

Compound: COC(=O)C1C(OCc2ccccc2)C2CCC1(OC)C=C2C (configuration not stated)
- GI50 (KM12): > 100 µM (inactive)
- GI50 (DMS-114): > 57.1 µM (inactive)
- GI50 (UO-31): > 100 µM (inactive)
- GI50 (IGROV-1): > 100 µM (inactive)
- GI50 (SK-OV-3): > 100 µM (inactive)
- GI50 (SW-620): > 100 µM (inactive)
- GI50 (DLD-1): > 100 µM (inactive)
- GI50 (HCT-116): 61.4 µM (inactive)
- GI50 (Malme-3M): > 100 µM (inactive)
- GI50 (NCI-H522): 29.4 µM (inactive)
- GI50 (OVCAR-8): > 84.9 µM (inactive)
- GI50 (SK-MEL-5): > 85.5 µM (inactive)
- GI50 (HCT-15): > 89.3 µM
- GI50 (OVCAR-5): > 100 µM (inactive)
- GI50 (CAKI-1): > 77.6 µM (inactive)
- GI50 (SNB-75): > 100 µM (inactive)
- GI50 (HOP-92): > 100 µM (inactive)
- GI50 (DMS-273): > 55.3 µM (inactive)
- GI50 (HOP-18): > 100 µM (inactive)
- GI50 (HOP-62): > 100 µM (inactive)
- GI50 (UACC-62): 64.6 µM (inactive)
- GI50 (MOLT-4): 24.9 µM (inactive)
- GI50 (RPMI-8226): 23.6 µM (inactive)
- GI50 (HL-60): 10.8 µM (inactive)
- GI50 (OVCAR-3): > 51.6 µM (inactive)
- GI50 (NCI-H23): > 88.5 µM (inactive)
- GI50 (A549): > 100 µM (inactive)
- GI50 (HT-29): > 100 µM (inactive)
- GI50 (TK-10): > 74.3 µM (inactive)
- GI50 (CCRF-CEM): 26.9 µM (inactive)
- GI50 (NCI-H460): > 100 µM (inactive)
- GI50 (SF-268): > 100 µM (inactive)
- GI50 (SK-MEL-2): > 50.8 µM (inactive)
- GI50 (K562): 41.1 µM (inactive)
- GI50 (U-251): > 55.2 µM (inactive)
- GI50 (786-0): > 100 µM (inactive)
- GI50 (SF-295): > 79.6 µM (inactive)
- GI50 (SN12C): > 100 µM (inactive)
- GI50 (SNB-78): > 100 µM (inactive)
- GI50 (RXF 393): 54.3 µM (inactive)
- GI50 (EKVX): 46.9 µM (inactive)
- GI50 (COLO 205): > 100 µM (inactive)
- GI50 (OVCAR-4): > 100 µM (inactive)
- GI50 (UACC-257): 42.8 µM (inactive)
- GI50 (SK-MEL-28): > 100 µM (inactive)
- GI50 (XF498): > 45.1 µM (inactive)
- GI50 (SNB-19): > 81.8 µM (inactive)
- GI50 (HCC 2998): 62.5 µM (inactive)
- GI50 (LXFL 529): 59 µM (inactive)
- GI50 (KM-20L2): > 100 µM (inactive)
- GI50 (A498): > 100 µM (inactive)
- GI50 (SR): 17.8 µM (inactive)
- GI50 (M19-MEL): > 58.3 µM (inactive)
- GI50 (M14): 60.8 µM (inactive)
- GI50 (NCI-H226): 75.5 µM (inactive)
- GI50 (ACHN): > 61.8 µM (inactive)
- GI50 (SF-539): 97.7 µM (inactive)
- GI50 (LOX IMVI): > 68.7 µM (inactive)

Compound: N#CC1(Cc2ccccc2Cl)c2ccccc2C=CN1C(=O)c1ccccc1 (configuration not stated)
- GI50 (KM12): > 100 µM (inactive)
- GI50 (DMS-114): 96.8 µM (inactive)
- GI50 (UO-31): 51.9 µM (inactive)
- GI50 (IGROV-1): > 100 µM (inactive)
- GI50 (SK-OV-3): > 100 µM (inactive)
- GI50 (SW-620): > 100 µM (inactive)
- GI50 (HCT-116): > 100 µM (inactive)
- GI50 (Malme-3M): 34.1 µM (inactive)
- GI50 (NCI-H522): 86.1 µM (inactive)
- GI50 (OVCAR-8): > 100 µM (inactive)
- GI50 (SK-MEL-5): 47.4 µM (inactive)
- GI50 (HCT-15): 98.6 µM
- GI50 (OVCAR-5): > 100 µM (inactive)
- GI50 (SNB-75): > 100 µM (inactive)
- GI50 (HOP-92): 52.7 µM (inactive)
- GI50 (DMS-273): > 100 µM (inactive)
- GI50 (HOP-18): > 100 µM (inactive)
- GI50 (HOP-62): > 100 µM (inactive)
- GI50 (UACC-62): > 100 µM (inactive)
- GI50 (MOLT-4): 28.4 µM (inactive)
- GI50 (RPMI-8226): 66.5 µM (inactive)
- GI50 (HL-60): 29 µM (inactive)
- GI50 (OVCAR-3): > 100 µM (inactive)
- GI50 (NCI-H23): 28.2 µM (inactive)
- GI50 (A549): 90.8 µM (inactive)
- GI50 (HT-29): 75.5 µM (inactive)
- GI50 (TK-10): 46.8 µM (inactive)
- GI50 (CCRF-CEM): 57.4 µM (inactive)
- GI50 (SF-268): > 100 µM (inactive)
- GI50 (SK-MEL-2): > 100 µM (inactive)
- GI50 (K562): 25.1 µM (inactive)
- GI50 (U-251): 48.9 µM (inactive)
- GI50 (786-0): > 100 µM (inactive)
- GI50 (SF-295): 81.8 µM (inactive)
- GI50 (SN12C): 77.8 µM (inactive)
- GI50 (SNB-78): > 100 µM (inactive)
- GI50 (RXF 393): 23.2 µM (inactive)
- GI50 (EKVX): > 100 µM (inactive)
- GI50 (COLO 205): > 100 µM (inactive)
- GI50 (UACC-257): 78.7 µM (inactive)
- GI50 (SK-MEL-28): 54.8 µM (inactive)
- GI50 (XF498): 40.1 µM (inactive)
- GI50 (SNB-19): > 100 µM (inactive)
- GI50 (HCC 2998): > 100 µM (inactive)
- GI50 (LXFL 529): 43.1 µM (inactive)
- GI50 (KM-20L2): > 100 µM (inactive)
- GI50 (A498): > 100 µM (inactive)
- GI50 (SR): 45.5 µM (inactive)
- GI50 (M19-MEL): > 100 µM (inactive)
- GI50 (M14): > 100 µM (inactive)
- GI50 (NCI-H226): > 100 µM (inactive)
- GI50 (ACHN): 90.8 µM (inactive)
- GI50 (SF-539): > 100 µM (inactive)
- GI50 (LOX IMVI): > 100 µM (inactive)
